{"source": "patent EP1243271A1", "about": "“NASAL DROPS CONTAINING FUSED PYRIDAZINE DERIVATIVES” (Takeda Chemical Industries, Ltd., priority 1999, dated 2001)", "key": {"Male Hartley guinea pigs": {"tested_on": "Male Hartley guinea pigs", "assay": "Effect on histamine-induced increases in microvascular permeability in skin in guinea pigs", "assay_type": "in vivo", "conditions": "Cavia porcellus; 3 mg/kg oral administration 1 hour before histamine; guinea pig skin", "method": "Male Hartley guinea pigs weighing about 500 g were used. After the dorsal hair was shaved under ether anesthesia, 1 ml of a 2.5% pontamine sky blue solution was injected intravenously, and then 0.1 ml of histamine at 3 µg/ml was injected intradermally into 2 sites (left and right) in the back. Thirty minutes after the injection of histamine, animals were fainted by knocking in the head, decapitated and killed by bleeding, after which the skin of the back was removed. The long and short diameters (mm) of each blue spot were measured and multiplied; the mean product was taken as the vascular permeability index. Test compounds were suspended in a 5% gum arabic solution and orally administered in a volume of 0.2 ml/100 g body weight at 1 hour before histamine administration. Animals in the control group received the same volume of a 5% gum arabic solution. Equation 1 Inhibition (%) of histamine-induced increases in microvascular permeability in skin = 100 × (1-vascular permeability index in the presence of drug/vascular permeability index in control group) [formula]"}, "guinea pig": {"tested_on": "guinea pig", "assay": "Effect on intranasal pressure and pituita (nasal) secretion after histamine aerosol, nasal administration", "assay_type": "in vivo", "method": "Animals were anesthetized with pentobarbital sodium (30 mg/kg, i.p.), and the compound of Reference Example B135 and solvent (0.1% sodium dihydrogenphosphate + 0.1% Tween 80) were administered into the both nasal cavities of guinea pig in 20 µL. The animals underwent the following test in about 0.5 hour.\nThe animals under anesthesia was held in the supine position. The neck was opened by median incision to expose the air tube. For maintenance of respiration, a polyethylene tube was inserted down into the air tube. Another polyethylene tube was inserted from the air tube incision into the rhinopharynx, and connected to a respirator via a silicon tube, through which the air was supplied into the nasal cavity at a volume of 4 mL/stroke and a frequency of 70 strokes/min. To prevent the air leak into the oral cavity, incisive canal was closed with Aron alfa A (trademark, Sankyo, Tokyo). The intranasal pressure was measured with a transducer connected to a side branch of the tube inserted into the nasal cavity. Histamine 1000 µg/mL solution was aerosolized using an ultrasonic nebulizer provided between the respirator and the tube in the nasal cavity, and the air was supplied into the nasal cavity for 3 minutes. After the histamine air supply, the intranasal pressure was depicted on an oscillograph for 15 minutes and the area under the curve was determined.\nThe pituita flowed out from the nasal cavity or pooled in the nasal cavity during the 15 minutes after histamine air supply was wiped with a cotton swab, which was weighed on an electronic weighing machine.\nWhere necessary, aerosolized physiological saline as a negative control was supplied into the nasal cavity, and the intranasal pressure and nasal secretion were measured."}, "histamine H1 receptor": {"target": "T1, histamine H1 receptor (Cavia porcellus, UniProt P31389)", "T1 construct": "The cerebral cortex and lung tissues were removed and homogenized in phosphate buffer solution; from tissue; host or cells: cerebral cortex and lung crude membrane fractions of male Hartley guinea pigs", "T1 sequence (P31389 whole entry)": "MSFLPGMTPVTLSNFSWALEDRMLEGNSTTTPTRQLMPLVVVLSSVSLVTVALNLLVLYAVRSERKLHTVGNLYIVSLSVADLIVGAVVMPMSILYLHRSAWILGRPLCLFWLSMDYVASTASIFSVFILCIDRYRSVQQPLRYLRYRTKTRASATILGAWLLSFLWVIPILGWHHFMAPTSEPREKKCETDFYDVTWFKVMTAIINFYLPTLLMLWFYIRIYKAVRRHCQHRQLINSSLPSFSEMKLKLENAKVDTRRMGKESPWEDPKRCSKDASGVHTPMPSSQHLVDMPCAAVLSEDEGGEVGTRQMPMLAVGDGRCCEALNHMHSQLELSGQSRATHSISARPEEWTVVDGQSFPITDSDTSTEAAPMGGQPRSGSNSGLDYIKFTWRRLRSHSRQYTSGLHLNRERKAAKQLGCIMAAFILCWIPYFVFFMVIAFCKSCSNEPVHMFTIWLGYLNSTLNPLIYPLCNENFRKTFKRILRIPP", "assay": "Penetrability into the brain: ex vivo binding test with tritium-labeled pyrilamine in brain and lung membrane fractions", "parameters": "species or system guinea pigs", "method": "The compound of Reference Example B135 was orally administered (10 or 100 mg/kg) to male Hartley guinea pigs and, one hour later, the guinea pigs were slaughtered by decapitation. The cerebral cortex and lung tissues were removed and homogenized in phosphate buffer solution, followed by centrifugation at 4°C and 1000×g for 10 minutes. The supernatant was further centrifuged at 5000×g for 10 minutes to give crude membrane fractions. The membrane fractions were suspended in a buffer and, after adjusting the protein concentration to 1.0 mg/mL, subjected to binding test with tritium-labeled pyrilamine (2 nM). The inhibitory action on ex vivo binding test measured specific binding of pyrilamine in the brain and lung membrane fractions was calculated and used as an index of selectivity to peripheral histamine H1 receptor in the body upon oral administration of the agent."}, "[1]": {"conditions": "0.1% solution, nasal, 20 µL, histamine 1000 µg/mL aerosol"}, "[2]": {"conditions": "1.0% solution, nasal, 20 µL, histamine 1000 µg/mL aerosol"}}}
{"compound": "CC(C)(C(=O)O)c1cn2nc(NCCCN3CCC(OC(c4ccccc4)c4ccccc4)CC3)ccc2n1.O.O", "note": "[Reference Example B135, 2-[6-[3-[4-(diphenylmethoxy)piperidino]-propylamino]imidazo[1,2-b]pyridazin-2-yl]-2-methylpropionic acid dihydrate]", "values": [{"measurement": "inhibition in vivo at 3 mg/kg", "setting": "Male Hartley guinea pigs", "result": 91, "unit": "%"}, {"measurement": "percent inhibition of increase in intranasal pressure by nasal administration of 0.1% solution", "setting": "guinea pig; [1]", "result": 70, "unit": "%"}, {"measurement": "percent inhibition of nasal secretion by nasal administration of 0.1% solution", "setting": "guinea pig; [1]", "result": 72, "unit": "%"}, {"measurement": "percent inhibition of increase in intranasal pressure by nasal administration of 1.0% solution", "setting": "guinea pig; [2]", "result": 62, "unit": "%"}, {"measurement": "percent inhibition of nasal secretion by nasal administration of 1.0% solution", "setting": "guinea pig; [2]", "result": 78, "unit": "%"}, {"measurement": "increase in the intranasal pressure and nasal secretion", "setting": "guinea pig; conclusion from Tables 3 and 4", "result": "reduced increase in the intranasal pressure and nasal secretion"}, {"measurement": "penetrability into the brain", "setting": "histamine H1 receptor; conclusion from Tables 5 and 6", "result": "poor penetrability into the brain"}, {"measurement": "percent inhibition of specific binding of membrane fraction pyrilamine in brain", "setting": "histamine H1 receptor; oral administration of 10 mg/kg, one hour later, brain (cerebral cortex)", "result": -2.9, "unit": "%"}, {"measurement": "percent inhibition of specific binding of pyrilamine in lung membrane fraction", "setting": "histamine H1 receptor; oral administration of 10 mg/kg, one hour later", "result": 95, "unit": "%"}, {"measurement": "percent inhibition of specific binding of pyrilamine in brain membrane fraction", "setting": "histamine H1 receptor; oral administration of 100 mg/kg, one hour later, brain (cerebral cortex)", "result": 44, "unit": "%"}, {"measurement": "percent inhibition of specific binding of pyrilamine in lung membrane fraction", "setting": "histamine H1 receptor; oral administration of 100 mg/kg, one hour later", "result": 95, "unit": "%"}]}
